Experimental data from patent US12616711B2, “Therapeutic dendrimer” (Starpharma Pty Ltd, priority 2019, dated 2026).

Columns and labels:
A549 cells = assay: alamarBlue viability assay, GI50; format: cell-based, human; settings: 72 h, given in μM Gemcitabine
Description: (§1) A study was carried out to determine the ability of example dendrimers to inhibit growth of cancer cell lines using an alamarBlue viability assay (Thermo Fisher, DAL1025).
(§2) The cytotoxicity of compounds toward MDA-MB-231, A549, H460, BxPC3 and CAPAN-1 cells were evaluated for viability. Cells were seeded at a density of 1.2-5×10^3 cells, dependent on cell growth rate, in 96 well plates and incubated overnight. Cells were then treated with serial dilutions of test compositions for 72 h (MDA-MB-231, A549 and H460 lines) or 144 h (BxPC3 and CAPAN-1 lines). For cell viability analysis, 10% media volume of alamar Blue was added during the final 6-8 h of incubation. Reduction of alamarBlue in living cells yields a red fluorescent metabolite that can be read on a plate reader (560 nm excitation/610 nm emission.). Cell viability and subsequent GI50 values were was determined from the blank corrected dose-response curves, with 4-parameter nonlinear curve fit, in GraphPad Prism.

CAPAN-1 cells = assay: alamarBlue viability assay, GI50; format: cell-based, human; settings: 144 h, given in μM Gemcitabine
Description: as §1, §2

[1] = tested on: CAPAN-1 tumour xenografts; assay: CAPAN-1 mouse xenograft, alone or with Abraxane or DEP-DTX (Examples 13a, 13b); format: in vivo; settings: day 29; i.v.; Gemcitabine 120, Abraxane 40, 3 at 6.5, 6 at 5 (day 1) then 4, DEP-DTX 24 (10 in combination) mg/kg
Description: Mice were inoculated and tumours sized as described above. On day nineteen after implantation, mice with similar sized tumours (mean tumour volume 100 mm^3) were randomised into 7 groups of 10 animals. […] Abraxane® was dissolved in saline solution immediately prior to dosing.
Abraxane®, gemcitabine and dendrimers were administered at days 1, 10, and 17 via tail vein i.v. injection, at 0.1 ml/10 g body weight.
In an extension of Example 13a, two additional groups of mice were prepared and dosed to assess the anti-tumour efficacy properties of a taxane-dendrimer combined with a nucleoside analogue-dendrimer (e.g. 6). Mice were inoculated and tumours sized as described above.
Dendrimers were administered weekly via tail vein i.v. injection, at 0.1 ml/10 g body weight for 3 weeks.
All statistical analyses were performed using GraphPad Prism 8.1.

[2] = tested on: CAPAN-1 tumour xenografts; assay: CAPAN-1 mouse xenograft pancreatic cancer model, efficacy vs gemcitabine (Example 11); format: in vivo; settings: for Tumour Growth inhibition (%) v vehicle: day 29, Gemcitabine 120, 1 at 2, 4 at 5, 2 at 5, 5 at 3 mg/kg; for Tumour Growth inhibition (%) v vehicle / effect on CAPAN-1 tumours over the dosing study (FIG. 4): i.v. twice weekly for 3 weeks; for survival compared to Gemcitabine (Kaplan-Meier): P<0.0001 Mantel Cox, Gemcitabine 120 mg/kg; for effect on CAPAN-1 tumours over the dosing study (FIG. 4): 4 at 5, 2 at 5, 5 at 3 mg/kg
Description: A CAPAN-1 (human pancreatic adenocarcinoma cell line) mouse xenograft pancreatic cancer model study was carried out to assess the anti-tumour efficacy properties of example dendrimers compared to gemcitabine.
Compounds 1, 4, 2 and 5 were prepared by dissolving in sterile saline solution immediately prior to dosing and. Gemcitabine ((DBL™ Gemcitabine injection, Hospira Pty Ltd.) was further diluted in saline solution prior to dosing.
Female NOD-SCID Interleukin-2 receptor gamma chain null mice (aged 9 weeks) were inoculated subcutaneously on the flank with 5×10^6 CAPAN-1 cells in PBS:Matrigel (1:1). Mice were weighed and tumours measured twice weekly using electronic callipers. Tumour volume (mm^3) was calculated as length (mm)/2×width (mm)^2. On day seventeen after implantation, mice with similar sized tumours (mean tumour volume 100 mm^3) were randomised into 6 groups of 10 animals.
Compounds were administered via tail vein i.v. injection, twice weekly at […] for 3 weeks. Groups were dosed as follows: • 1. Saline—vehicle • 2. Gemcitabine (120 mg/kg, i.v.) • 3. 1 (2 mg/kg, i.v.) • 4. 4 (5 mg/kg, i.v.) • 5. 2 (5 mg/kg, i.v.) • 6. 5 (3 mg/kg, i.v.)
Tumour growth inhibition was analysed at day 29 (where all vehicle animals remained in the study) using one-way ANOVA followed by Dunnett's multiple comparison test. Tumour growth curves of gemcitabine and DEP-gemcitabine were compared over 47 days (when all treatment group animals remained in the study for tumour-related endpoints) using a mixed-effects model followed by Tukey's multiple comparison test. […] All statistical analysis was performed using GraphPad Prism 8.1.

MDA-MB-231 cells = assay: alamarBlue viability assay, GI50; format: cell-based; settings: 72 h, given in μM Gemcitabine
Description: as §1, §2

H460 cells = assay: alamarBlue viability assay, GI50; format: cell-based; settings: given in μM Gemcitabine
Description: as §1, §2

BxPC3 cells = assay: alamarBlue viability assay, GI50; format: cell-based; settings: BxPC-3, 144 h, given in μM Gemcitabine
Description: as §1, §2

[3] = tested on: CAPAN-1 tumour xenografts; assay: CAPAN-1 mouse xenograft, dosing regimen study (Example 12); format: in vivo; settings: 5 mg/kg i.v. weekly for 3 weeks compared to 2 mg/kg i.v. biweekly for 3 weeks
Description: A CAPAN-1 (human pancreatic adenocarcinoma cell line) mouse xenograft pancreatic cancer model was established to assess the effects of weekly compared to biweekly administration of an example dendrimer.
Compound 1 was prepared as described above. Mice were inoculated and tumours sized as described above. On day seventeen after implantation, mice with similar sized tumours (mean tumour volume 140 mm^3) were randomised into 2 groups of 5 animals: • 1. 1 (5 mg/kg, i.v.) weekly for 3 weeks; and • 2. 1 (2 mg/kg, i.v.) biweekly for 3 weeks.

Plasma release study = format: in vitro ADME; settings: 37° C.
Description: The plasma was placed in a CO2 incubator at 3% CO2 at 42% relative humidity to reach a pH of 7.4.
Gemcitabine HCl (28.5 mg) was dissolved in Milli Q water and the resulting stock solution transferred to a 5 mL volumetric flask and diluted to provide working standard solutions.
The plasma release study was conducted by adding 1 mL of plasma (centrifuged and filtered) to 0.2 mL of dendrimer solution (approximately 2 mg/mL gemcitabine equivalent in miliQ water) for example dendrimers and a comparator. The mixtures were vortexed (30 sec) then incubated at 37° C. 5% CO2. At various timepoints aliquots (0.1 mL) were removed and added to ACN (0.2 mL). The resulting mixtures were vortexed (30 s), centrifuged (10 min, 4° C.), filtered and analysed by HPLC (C8 Xbridge, 3×100 mm, […], 0.4 mL/min., gradient: 5% ACN/H2O) (0-1 min), 5-80% ACN (1-7 min), 80% ACN (7-12 min), 80-5% ACN (12-13 min), 5% ACN (13-15 min), 100 mM ammonium formate buffer, column temperature 50° C., sample tray 4° C., 260 nm.

Molecule | Tumour Growth inhibition (%) v vehicle at day 29 [1] | Tumour Growth inhibition (%) v vehicle [2] | GI50 (A549 cells) | GI50 (CAPAN-1 cells) | GI50 (H460 cells; 72 h) | GI50 (BxPC3 cells) | survival compared to Gemcitabine (Kaplan-Meier) [2] | effect on CAPAN-1 tumours over the dosing study (FIG. 4) [2] | GI50 (MDA-MB-231 cells) | further results
Nc1ccn([C@@H]2O[C@H](CO)[C@@H](O)C2(F)F)c(=O)n1 [Gemcitabine, gemcitabine, reference compound] | 59% | 84% |  |  |  |  |  |  |  | GI50 (A549 cells; Homo sapiens): 0.011 µM; GI50 (CAPAN-1 cells; Homo sapiens): 0.009 µM; GI50 (MDA-MB-231 cells; Homo sapiens): 0.004 µM; GI50 (H460 cells; Homo sapiens, NCI-H460, 72 h): 0.042 µM; GI50 (BxPC3 cells; Homo sapiens): 0.009 µM
BHALys[Lys]32[α-TDA-DTX]32[ε-PolyPEG2000]32 [DEP-DTX, reference compound] | 108% |  |  |  |  |  |  |  |  | 
[BHA Lys][Lys]30[Lys]32 [Compound 1, [BHA Lys][Lys]30[Lys]32 [(α-NH-TDA-Gemcitabine)32 (ε-NHPEG˜1100)32]] |  | 75% | 0.051 µM | 0.033 µM | 0.215 µM | 0.007 µM |  |  |  | suppression of tumour growth, weekly vs biweekly regimen (FIG. 5) [3]: more effective at suppressing tumour growth than 1, given biweekly at 2 mg/kg
[BHA Lys][Lys]30[Lys]32 [Compound 2, [BHA Lys][Lys]30[Lys]32 [(α-NH-TDA-Gemcitabine)32 (ε-NHPEG570)32]] |  | 94% | 0.034 µM | 0.021 µM | 0.412 µM |  | significantly extended survival beyond that of Gemcitabine | complete stasis | 0.004 µM | 
[BHA Lys][Lys]30[Lys]32 [Compound 4, [BHA Lys][Lys]30[Lys]32 [(α-NH-DGA-Gemcitabine)32 (ε-NHPEG˜570)32]] |  | 91% | 0.031 µM | 0.011 µM | 0.061 µM | 0.013 µM | significantly extended survival beyond that of Gemcitabine | complete stasis | 0.003 µM | 
[BHA Lys][Lys]30[Lys]32 [Compound 5, [BHA Lys][Lys]30[Lys]32 [(α-NH-DGA-Gemcitabine)32 (ε-NHPEG˜1100)32]] |  | 94% | 0.044 µM | 0.003 µM | 0.046 µM |  | significantly extended survival beyond that of Gemcitabine | complete stasis | 0.003 µM | 
[BHA Lys][Lys]30[Lys]32 [Compound 6, [BHA Lys][Lys]30[Lys]32 [(α-NH-DGA-Gemcitabine)32 (ε-NHPEG˜2100)32]] | 83% |  | 0.045 µM | 0.006 µM | 0.056 µM | 0.001 µM |  |  | 0.005 µM | Human Plasma % release (Plasma release study; 0 h): 0.49%; Human Plasma % release (Plasma release study; 2 h): 9.94%; Human Plasma % release (Plasma release study; 4 h): 18.18%; Human Plasma % release (Plasma release study; 6 h): 39.84%; Human Plasma % release (Plasma release study; 24 h): 71.13%; Human Plasma % release (Plasma release study; 30 h): 77.98%
[BHA Lys][Lys]30[Lys]32 [Compound 8, [BHA Lys][Lys]30[Lys]32 [(α-NH-Glu-Gemcitabine)32 (ε-NHPEG˜2100)32]] |  |  | 0.5 µM |  |  |  |  |  | 0.103 µM | Human Plasma % release (Plasma release study; 0 h): −0.17%; Human Plasma % release (Plasma release study; 2 h): 0.22%; Human Plasma % release (Plasma release study; 4 h): −1.99%; Human Plasma % release (Plasma release study; 6 h): 3.02%; Human Plasma % release (Plasma release study; 24 h): 6.19%; Human Plasma % release (Plasma release study; 30 h): 5.39%
